What was measured:
Assay in all cases: relative viability (nuclei count vs DMSO), 5 days (fraction); higher = more cells survive
GSK-J4 + Foretinib = compound: CCOC(=O)CCNc1cc(N2CCc3ccccc3CC2)nc(-c2ccccn2)n1 [GSK-J4] + COc1cc2c(Oc3ccc(NC(=O)C4(C(=O)Nc5ccc(F)cc5)CC4)cc3F)ccnc2cc1OCCCN1CCOCC1 [Foretinib] (partner 0.25 µM)
In short: (§1)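 A single step with final 0.05% Triton X-100, 1% formaldehyde and 1 ug/ml Hoechst fixed the cells and stained nuclei 5 days after treatment. Lung cancer cell lines in 1536-well plates had been treated by pin tool the day after seeding with one drug alone or a fixed anchor-drug dose plus five library-drug doses (not always all listed) in √10 steps, and nuclei were counted on 4× images. Relative viability is the ratio of nuclei in treated wells to nuclei in vehicle wells, taken as the median of duplicate plates.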

GSK-J4 + Pictilisib = compound: CCOC(=O)CCNc1cc(N2CCc3ccccc3CC2)nc(-c2ccccn2)n1 [GSK-J4] + CS(=O)(=O)N1CCN(Cc2cc3nc(-c4cccc5[nH]ncc45)nc(N4CCOCC4)c3s2)CC1 [Pictilisib] (partner 1 µM)
In short: as §1

AZ3146 + Tozasertib = compound: CN1CCC(CC1)OC2=CC(=C(C=C2)NC3=NC=C4C(=N3)N(C(=O)N4C)C5CCCC5)OC [AZ3146] + Cc1cc(Nc2cc(N3CCN(C)CC3)nc(Sc3ccc(NC(=O)C4CC4)cc3)n2)n[nH]1 [Tozasertib] (partner 0.1 µM)
In short: as §1

AZ3146 + Olaparib = compound: CN1CCC(CC1)OC2=CC(=C(C=C2)NC3=NC=C4C(=N3)N(C(=O)N4C)C5CCCC5)OC [AZ3146] + O=C(c1cc(Cc2n[nH]c(=O)c3ccccc23)ccc1F)N1CCN(C(=O)C2CC2)CC1 [Olaparib] (partner 8 µM)
In short: as §1

Cell Line	relative viability (GSK-J4 + Foretinib; first compound 0.5 µM)	relative viability (GSK-J4 + Foretinib; first compound 1.581 µM)	relative viability (GSK-J4 + Foretinib; first compound 15.81 µM)	relative viability (GSK-J4 + Foretinib; first compound 50 µM)	relative viability (GSK-J4 + Pictilisib; first compound 0.5 µM)	relative viability (GSK-J4 + Pictilisib; first compound 1.581 µM)	relative viability (GSK-J4 + Pictilisib; first compound 15.81 µM)	relative viability (GSK-J4 + Pictilisib; first compound 50 µM)	relative viability (AZ3146 + Tozasertib; first compound 0.08 µM)	relative viability (AZ3146 + Tozasertib; first compound 0.253 µM)	relative viability (AZ3146 + Tozasertib; first compound 0.8 µM)	relative viability (AZ3146 + Tozasertib; first compound 2.53 µM)	relative viability (AZ3146 + Tozasertib; first compound 8 µM)	relative viability (AZ3146 + Olaparib; first compound 0.253 µM)	relative viability (AZ3146 + Olaparib; first compound 0.8 µM)	relative viability (AZ3146 + Olaparib; first compound 2.53 µM)	relative viability (AZ3146 + Olaparib; first compound 8 µM)	relative viability (GSK-J4 + Foretinib; first compound 5 µM)	relative viability (GSK-J4 + Pictilisib; first compound 5 µM)	relative viability (AZ3146 + Olaparib; first compound 0.08 µM)
BEN	0.857	0.593	0.588	0.53	0.666	0.471	0.539	0.33	0.402	0.509	0.493	0.512	0.406	1.07	1.12	0.899	0.917	–	–	–
SW 1573	0.846	0.69	0.776	0.764	0.526	0.562	0.544	0.294	0.208	0.162	0.179	0.164	0.195	0.507	0.575	0.374	0.227	0.751	0.549	0.569
EPLC-272H	0.723	0.547	0.514	0.26	0.428	–	0.275	0.219	–	0.237	0.184	0.217	0.138	0.841	0.878	0.914	0.643	0.819	0.35	0.892
LK-2	1.26	–	0.794	0.805	0.573	0.531	0.456	0.443	0.175	0.186	0.188	0.157	0.196	0.586	0.559	0.672	0.831	1.31	0.736	0.61
NCI-H23	0.999	0.885	0.802	0.847	0.535	–	0.49	0.319	0.315	0.338	0.362	0.301	0.338	0.289	0.389	0.356	0.338	0.942	0.545	0.291
NCI-H441	0.962	0.875	0.906	0.759	0.427	0.458	0.506	0.403	0.676	0.701	0.595	0.588	0.266	0.645	0.603	0.678	0.523	1.1	0.571	0.519
NCI-H2009	1.17	1.19	1.2	0.986	0.816	0.317	0.85	0.428	0.669	0.689	0.463	0.557	0.434	0.662	0.742	0.649	0.604	–	0.673	0.642
NCI-H1299	1.06	1.03	1.07	1.11	0.733	0.802	0.705	0.327	–	–	–	–	–	0.941	0.944	0.938	0.789	0.994	0.849	0.932
Calu-6	0.83	0.867	0.839	0.822	0.825	0.874	0.88	0.807	–	–	–	–	–	0.505	0.535	0.551	0.5	0.867	0.895	0.55
NCI-H1563	0.943	0.898	0.801	0.973	0.695	0.719	0.709	0.619	–	–	–	–	–	–	–	–	–	0.747	0.62	–
NCI-H1792	–	–	–	–	0.306	0.25	0.244	0.263	–	–	–	–	–	0.522	0.384	0.42	0.434	–	0.254	0.351
EBC-1	0.0939	0.0899	0.0966	0.103	0.376	0.336	0.416	0.257	–	–	–	–	–	0.71	0.671	0.634	0.397	0.0897	0.451	0.699
NCI-H1648	–	–	–	–	–	–	–	–	–	0.303	0.54	0.58	0.406	–	0.987	1.18	0.802	–	–	–
NCI-H1703	0.319	0.403	0.325	0.304	0.254	0.259	0.195	0.275	–	–	–	–	–	0.383	0.517	0.346	0.402	0.337	0.232	0.424
A549	0.84	0.874	0.911	0.828	0.43	–	0.488	0.332	–	–	–	–	–	0.268	0.419	0.43	0.269	0.907	0.573	0.203
NCI-H522	–	–	–	–	–	–	–	–	0.533	0.512	0.582	0.455	0.587	0.685	0.515	0.695	0.596	–	–	0.68
NCI-H1623	0.93	0.727	0.562	0.807	–	–	–	–	0.46	0.404	0.461	0.481	0.4	–	–	–	–	0.925	–	–
SW 900	0.681	0.836	0.591	0.431	–	–	–	–	0.466	0.625	0.399	0.326	0.333	–	0.785	0.846	0.754	1.05	–	0.706

Source: the supplement of paper PMC10307832
